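These data come from cells grown in 96-well plates and exposed to compound for 48 hours at five concentrations. GI50: concentration for 50% inhibition of growth. TGI marks complete inhibition of growth.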
Assays:
Assay in all cases: inhibition of tumour cell growth, NCI panel, 48 h
DU-145 prostate = system: DU-145 prostate
MDA-MB-231 breast = system: MDA-MB-231 breast
PC-3 prostate = system: PC-3 prostate
T-47D breast = system: T-47D breast
NCI/ADR-RES ovarian = system: NCI/ADR-RES ovarian
MCF7 breast = system: MCF7 breast
SR leukemia = system: SR leukemia
BT-549 breast = system: BT-549 breast
MDA-MB-435 = system: MDA-MB-435
HS 578T breast = system: HS 578T breast
MDA-N = system: MDA-N

SMILES	TGI (DU-145 prostate) [µM]	TGI (MDA-MB-231 breast) [µM]	TGI (PC-3 prostate) [µM]	TGI (T-47D breast) [µM]	TGI (NCI/ADR-RES ovarian) [µM]	TGI (MCF7 breast) [µM]	TGI (SR leukemia) [µM]	TGI (BT-549 breast) [µM]	TGI (MDA-MB-435) [µM]	TGI (HS 578T breast) [µM]	GI50 (DU-145 prostate) [µM]	GI50 (MDA-MB-231 breast) [µM]	GI50 (PC-3 prostate) [µM]	GI50 (T-47D breast) [µM]	GI50 (NCI/ADR-RES ovarian) [µM]	GI50 (MCF7 breast) [µM]	GI50 (SR leukemia) [µM]	GI50 (BT-549 breast) [µM]	GI50 (HS 578T breast) [µM]	TGI (MDA-N) [µM]
O=C(c1ccc2ccccc2c1)N(Cc1cccnc1)C(=S)N(Cc1cccnc1)C(=O)c1ccc2ccccc2c1	69.5	44.1	> 100	65.8	88.7	> 100	> 100	38.6	> 100	> 100	–	–	–	–	–	–	–	–	–	–
CCOC(=O)[C@H]1Nc2c(cccc2[N+](=O)[O-])[C@H]2OCC[C@@H]12	–	–	–	–	–	–	> 100	–	–	–	–	–	–	–	–	–	–	–	–	–
CC[C@H](Nc1nc(N)nc(C)c1C#N)c1nc2cccc(NCc3ccc(C(=O)NO)cc3)c2c(=O)n1-c1ccccc1	6.53	5.3	3.3	4.66	> 100	9.06	> 100	5.2	–	6.08	1.98	1.84	0.905	1.18	13.5	2.01	0.697	1.56	1.95	–
CC(=O)O[C@H]1CC[C@@]2(C)C(=CC[C@@H]3[C@@H]2CC[C@]2(C)Nc4c(cnn4S(C)(=O)=O)C[C@@H]32)C1	> 100	> 100	> 100	> 100	> 100	> 100	> 100	72.5	> 100	> 100	–	–	–	–	–	–	–	–	–	> 100
O=C(O)c1ccc([N+]2=Cn3c(nc4ccccc43)C2)cc1	> 100	> 100	> 100	> 100	> 100	> 100	–	> 100	> 100	> 100	–	–	–	–	–	–	–	–	–	> 100
O=C1C(c2c(O)[nH]c3ccc(S(=O)(=O)O)cc23)=Nc2ccc(Br)cc21	> 100	> 100	> 100	> 100	> 100	> 100	> 100	> 100	> 100	> 100	–	–	–	–	–	–	–	–	–	> 100
C/C(=N\Oc1cc(Cl)ncn1)c1ccccn1	> 100	87.6	> 100	> 100	> 100	> 100	> 100	> 100	> 100	> 100	–	–	–	–	–	–	–	–	–	> 100
CCC1(CCSC(=N)N)C(=O)NC(=O)NC1=O	> 100	> 100	> 100	–	> 100	> 100	> 100	> 100	> 100	> 100	–	–	–	–	–	–	–	–	–	> 100
O=C(O)CCSCc1ccc(I)cc1	> 100	> 100	> 100	> 100	> 100	> 100	–	> 100	> 100	> 100	–	–	–	–	–	–	–	–	–	> 100
CCCCCCCCCCCCCCCC(=O)OCC1CCCN2CCCCC12 (centres undefined)	> 100	> 100	> 100	–	> 100	> 100	–	> 100	> 100	> 100	–	–	–	–	–	–	–	–	–	> 100
O=C1Nc2ccccc2S/C1=C\c1cccc(C(F)(F)F)c1	> 100	> 100	> 100	> 100	> 100	> 100	> 100	> 100	> 100	> 100	–	–	–	–	–	–	–	–	–	> 100
CCOC(=O)CC1(O)CCCCC1(Sc1ccc(C)cc1)Sc1ccc(C)cc1 (centres undefined)	> 100	> 100	> 100	85.3	> 100	> 100	> 100	> 100	> 100	84.4	–	–	–	–	–	–	–	–	–	> 100
O=C(CCl)NC(Cc1ccc(F)cc1)C(=O)O (centres undefined)	–	–	–	–	> 100	> 100	–	–	–	–	–	–	–	–	–	–	–	–	–	–
Cc1ccc(C[P+]2(c3ccccc3)CCCCC2)cc1	–	–	–	–	–	–	90.9	–	–	–	–	–	–	–	–	–	–	–	–	–
CC(=O)OC/C=C/Cn1ncc(=O)[nH]c1=O	> 100	> 100	> 100	> 100	> 100	> 100	–	–	> 100	> 100	–	–	–	–	–	–	–	–	–	> 100
N=c1nc2n(cc1F)[C@@H]1O[C@H](CO)[C@@H](O)[C@@H]1O2	> 100	> 100	> 100	65.2	> 100	> 100	> 73.7	> 100	> 100	> 100	–	–	–	–	–	–	–	–	–	> 100
O=C1Nc2ccccc2S/C1=C\c1ccccc1C(F)(F)F	> 100	> 100	> 100	> 100	> 100	> 100	> 100	> 100	> 100	> 100	–	–	–	–	–	–	–	–	–	> 100
O=[As](O)(O)c1ccc(N=Nc2ccc([As](=O)(O)O)cc2)cc1	> 100	> 100	> 100	> 100	> 100	–	> 100	> 100	> 100	> 100	–	–	–	–	–	–	–	–	–	> 100
Cc1ccc([N+](=O)[O-])cc1NC(=O)C(=O)C(C(=O)c1ccccc1F)C1OC(=O)c2ccccc21 (centres undefined)	–	–	–	–	–	–	> 100	–	–	–	–	–	–	–	–	–	–	–	–	–
Oc1c2c(c3c4c1N=CC=4CCN=3)-c1c(Br)cc(Br)cc1CCN2	–	–	–	–	12.5	4.16	–	–	–	–	–	–	–	–	–	–	–	–	–	–
O=[N+]([O-])c1ccc2c(c1)Nc1c3ccccc3nc3cccc-2c13	9.43	> 25.4	16.9	43.2	17.1	–	8.91	29.8	36	> 100	–	–	–	–	–	–	–	–	–	15.2
O=C(N/C(=C\c1cccc([N+](=O)[O-])c1)c1nc2[nH]c(=S)[nH]c(=O)c2[nH]1)c1ccccc1	–	–	–	–	–	–	> 100	–	–	–	–	–	–	–	–	–	–	–	–	–
Nc1nncc2c1ccn2C1OC(CO)C(O)C1O (centres undefined)	–	–	–	–	–	–	> 100	–	–	–	–	–	–	–	–	–	–	–	–	–
Cc1ccc(S(=O)(=O)N/N=c2\c(C)c(C3=NS(=O)(=O)c4cc(S(N)(=O)=O)c(Cl)cc4N3)oc3c(Cl)cc(Cl)cc23)cc1	–	–	–	–	–	–	> 100	–	–	–	–	–	–	–	–	–	–	–	–	–
Nc1c(-c2nc3ccccc3o2)sc(=S)n1-c1ccc(Cl)cc1	32.9	64.5	82.1	33.1	74.1	> 100	> 100	76	> 100	46.4	–	–	–	–	–	–	–	–	–	> 100
O=C(O)c1cc2cc(c1)N=Cc1ccccc1OCc1cccc(n1)COc1ccccc1C=N2	> 25	> 25	> 25	–	15.4	> 25	> 25	> 25	8.25	13.1	–	–	–	–	–	–	–	–	–	9.82
Cc1cc2c(cc1C)[n+](=O)c(C#N)c(Cl)n2[O-]	43.4	63.8	> 100	–	42.3	27.5	> 100	38.1	> 100	> 100	–	–	–	–	–	–	–	–	–	41.6

From PubChem BioAssay (NCI)
